Measurements reported in the supplement of paper PMC6045584.
± gives the standard deviation of the averaged measurements.

Key:
NILOTINIB = compound: Cc1cn(-c2cc(NC(=O)c3ccc(C)c(Nc4nccc(-c5cccnc5)n4)c3)cc(C(F)(F)F)c2)cn1 [NILOTINIB]; assay: surviving fraction relative to DMSO-only wells; higher = less growth inhibition; conditions: exposure time: 5 days
How it was run: (§1)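 A line counted only if its three screens reached replicate Pearson r >0.7 and median Z' >0.3. Tumour cells in log phase were seeded at 250–500 per well in 384-well plates and, after 24 hours, kept in continuous contact with inhibitors at 0.5, 1, 5, 10, 50, 100, 500 and 1000 nM for five days. Surviving fraction was taken from CellTiter-Glo luminescence relative to the median of DMSO-only wells.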

[1] = compound: C[C@@H]1CN(CC(=O)Nc2ccc3c(c2)Cc2cccc(-c4cc(=O)cc(N5CCOCC5)o4)c2S3)C[C@H](C)O1; assay: as above; conditions: exposure time: 5 days
How it was run: as §1

| Test System | surviving fraction (NILOTINIB; 0.5 nM) | surviving fraction (NILOTINIB; 1 nM) | surviving fraction (NILOTINIB; 5 nM) | surviving fraction (NILOTINIB; 10 nM) | surviving fraction (NILOTINIB; 50 nM) | surviving fraction (NILOTINIB; 100 nM) | surviving fraction (NILOTINIB; 500 nM) | surviving fraction (NILOTINIB; 1000 nM) | surviving fraction ([1]; 0.5 nM) | surviving fraction ([1]; 1 nM) | surviving fraction ([1]; 5 nM) | surviving fraction ([1]; 10 nM) | surviving fraction ([1]; 50 nM) | surviving fraction ([1]; 100 nM) | surviving fraction ([1]; 500 nM) | surviving fraction ([1]; 1000 nM) |
| --- | --- | --- | --- | --- | --- | --- | --- | --- | --- | --- | --- | --- | --- | --- | --- | --- |
| RDES SOFT TISSUE | 1.14 ± 0.097 | 1.25 ± 0.058 | 0.966 ± 0.14 | 1.14 ± 0.14 | 0.847 ± 0.16 | 0.78 ± 0.026 | 0.821 ± 0.2 | 0.944 ± 0.13 | 1.18 ± 0.1 | 1.15 ± 0.11 | 0.972 ± 0.078 | 1.08 ± 0.24 | 0.759 ± 0.24 | 0.786 ± 0.23 | 0.799 ± 0.17 | 0.912 ± 0.24 |
| OSHN BONE | 1.02 ± 0.017 | 1.01 ± 0.023 | 1.06 ± 0.025 | 1.01 ± 0.029 | 0.996 ± 0.034 | 1 ± 0.033 | 0.967 ± 0.02 | 0.96 ± 0.026 | 1.06 ± 0.017 | 1.06 ± 0.029 | 1.09 ± 0.016 | 1.07 ± 0.025 | 1.017 ± 0.0072 | 1.021 ± 0.0095 | 1.01 ± 0.019 | 0.977 ± 0.0061 |
| CAL120 BREAST | 1.02 ± 0.041 | 1.02 ± 0.012 | 1.04 ± 0.052 | 1.03 ± 0.035 | 1.04 ± 0.027 | 1.01 ± 0.072 | 1.04 ± 0.081 | 1.02 ± 0.049 | 1.01 ± 0.029 | 1.02 ± 0.013 | 1.03 ± 0.02 | 1.04 ± 0.011 | 1.02 ± 0.022 | 1 ± 0.015 | 0.946 ± 0.046 | 0.87 ± 0.018 |
| C33A CERVIX | 0.986 ± 0.1 | 1.08 ± 0.05 | 1.07 ± 0.031 | 1.01 ± 0.06 | 1.13 ± 0.067 | 1.27 ± 0.031 | 1.2 ± 0.086 | 1.14 ± 0.12 | 0.963 ± 0.082 | 1.01 ± 0.1 | 1.06 ± 0.051 | 1.1 ± 0.074 | 1.06 ± 0.067 | 1.14 ± 0.14 | 0.973 ± 0.059 | 0.827 ± 0.1 |
| HSSYII SYNOVIAL | 0.907 ± 0.018 | 1 ± 0.033 | 0.973 ± 0.015 | 0.987 ± 0.052 | 0.9 ± 0.061 | 0.954 ± 0.029 | 0.874 ± 0.029 | 0.785 ± 0.036 | 0.975 ± 0.027 | 0.956 ± 0.032 | 0.931 ± 0.015 | 0.99 ± 0.041 | 0.891 ± 0.011 | 0.867 ± 0.043 | 0.84 ± 0.055 | 0.74 ± 0.041 |
| HUO3N1 BONE | 0.993 ± 0.012 | 0.986 ± 0.048 | 1.12 ± 0.047 | 1.08 ± 0.038 | 0.985 ± 0.051 | 1 ± 0.041 | 1.005 ± 0.0097 | 0.936 ± 0.054 | 1.01 ± 0.026 | 1 ± 0.031 | 1.05 ± 0.041 | 1.04 ± 0.041 | 1.04 ± 0.023 | 1.03 ± 0.025 | 0.979 ± 0.027 | 0.907 ± 0.026 |
| ZR751 BREAST | 1.05 ± 0.13 | 1.01 ± 0.11 | 1.069 ± 0.0042 | 1.03 ± 0.14 | 0.895 ± 0.03 | 0.834 ± 0.14 | 0.826 ± 0.058 | 0.66 ± 0.073 | 1.01 ± 0.1 | 1.08 ± 0.19 | 1.02 ± 0.21 | 0.959 ± 0.13 | 0.951 ± 0.035 | 0.956 ± 0.076 | 1.06 ± 0.24 | 0.977 ± 0.071 |
| BT20 BREAST | 1.076 ± 0.0072 | 1.073 ± 0.0027 | 1.06 ± 0.05 | 1.16 ± 0.084 | 0.913 ± 0.14 | 1.01 ± 0.14 | 0.984 ± 0.12 | 0.878 ± 0.062 | 1.04 ± 0.052 | 1.13 ± 0.044 | 1.1 ± 0.1 | 1.06 ± 0.081 | 0.843 ± 0.11 | 0.894 ± 0.089 | 0.902 ± 0.076 | 0.741 ± 0.045 |
| JIMT1 BREAST | 0.946 ± 0.041 | 0.955 ± 0.045 | 0.975 ± 0.039 | 0.964 ± 0.07 | 0.931 ± 0.054 | 0.958 ± 0.086 | 0.97 ± 0.045 | 0.924 ± 0.054 | 0.91 ± 0.034 | 0.924 ± 0.022 | 0.936 ± 0.02 | 0.952 ± 0.031 | 0.956 ± 0.013 | 1 ± 0.038 | 0.971 ± 0.03 | 0.887 ± 0.024 |
| PCI30 HEADNECK | 0.952 ± 0.075 | 0.888 ± 0.045 | 1.04 ± 0.06 | 1.01 ± 0.05 | 0.921 ± 0.072 | 0.871 ± 0.056 | 1.08 ± 0.073 | 0.965 ± 0.063 | 0.947 ± 0.047 | 0.947 ± 0.054 | 0.969 ± 0.078 | 1.04 ± 0.052 | 1.04 ± 0.064 | 1.03 ± 0.1 | 1 ± 0.034 | 0.867 ± 0.044 |
| SAOS2 BONE | 1.13 ± 0.064 | 1.09 ± 0.038 | 1.19 ± 0.035 | 1.21 ± 0.062 | 0.963 ± 0.072 | 0.912 ± 0.091 | 0.91 ± 0.016 | 0.905 ± 0.06 | 1.08 ± 0.037 | 1.01 ± 0.018 | 1.07 ± 0.021 | 1.1 ± 0.051 | 0.895 ± 0.057 | 0.977 ± 0.12 | 0.8487 ± 0.0063 | 0.774 ± 0.01 |
| MDAMB157 BREAST | 1.11 ± 0.045 | 0.957 ± 0.047 | 1.09 ± 0.083 | 1.11 ± 0.041 | 1.1 ± 0.066 | 1.07 ± 0.018 | 0.932 ± 0.17 | 0.928 ± 0.063 | 0.905 ± 0.074 | 0.972 ± 0.025 | 1.01 ± 0.057 | 1.09 ± 0.059 | 1 ± 0.028 | 1.05 ± 0.046 | 0.896 ± 0.022 | 0.89 ± 0.093 |
| U2OS BONE | 1.03 ± 0.032 | 1.02 ± 0.037 | 1.11 ± 0.032 | 1.11 ± 0.06 | 1.07 ± 0.059 | 1.13 ± 0.088 | 1.11 ± 0.095 | 1.09 ± 0.095 | 1.06 ± 0.052 | 1.09 ± 0.057 | 1.08 ± 0.029 | 1.08 ± 0.025 | 1.1 ± 0.058 | 1.09 ± 0.061 | 1.03 ± 0.048 | 1.02 ± 0.05 |
| 22RV1 PROSTATE | 1.04 ± 0.05 | 1.07 ± 0.026 | 1.13 ± 0.079 | 1 ± 0.022 | 1.18 ± 0.13 | 1.09 ± 0.1 | 1.09 ± 0.043 | 1.09 ± 0.038 | 1.07 ± 0.068 | 1.07 ± 0.021 | 1.02 ± 0.045 | 1.04 ± 0.044 | 1.12 ± 0.07 | 1.12 ± 0.074 | 1.08 ± 0.09 | 1.08 ± 0.031 |
| HCC1954 BREAST | 0.917 ± 0.15 | 0.891 ± 0.032 | 0.936 ± 0.059 | 0.969 ± 0.019 | 0.589 ± 0.0085 | 0.677 ± 0.12 | 0.8063 ± 0.0032 | 0.739 ± 0.077 | 0.9487 ± 0.0025 | 0.93 ± 0.092 | 0.875 ± 0.086 | 1.03 ± 0.11 | 0.742 ± 0.01 | 0.771 ± 0.051 | 0.604 ± 0.09 | 0.504 ± 0.12 |
| HCC202 BREAST | 1.36 ± 0.11 | 1.08 ± 0.044 | 0.83 ± 0.15 | 0.987 ± 0.5 | 1.01 ± 0.22 | 1.09 ± 0.069 | 1.08 ± 0.052 | 0.912 ± 0.034 | 1.01 ± 0.17 | 0.911 ± 0.089 | 0.845 ± 0.24 | 1.11 ± 0.26 | 0.84 ± 0.11 | 0.946 ± 0.25 | 0.845 ± 0.18 | 0.838 ± 0.28 |
| SCC90 HEADNECK | 0.993 ± 0.034 | 1 ± 0.02 | 1.07 ± 0.17 | 1.201 ± 0.0059 | 0.966 ± 0.13 | 0.764 ± 0.045 | 0.924 ± 0.069 | 0.867 ± 0.1 | 1.01 ± 0.16 | 1.03 ± 0.11 | 1.07 ± 0.027 | 1.12 ± 0.033 | 1.02 ± 0.042 | 0.952 ± 0.077 | 0.963 ± 0.03 | 0.971 ± 0.12 |
| NOS1 BONE | 0.958 ± 0.048 | 1.11 ± 0.029 | 1.07 ± 0.093 | 1.21 ± 0.048 | 1.02 ± 0.045 | 0.849 ± 0.013 | 0.666 ± 0.019 | 0.606 ± 0.03 | 1.05 ± 0.15 | 1.07 ± 0.1 | 1.12 ± 0.13 | 1.23 ± 0.13 | 1.047 ± 0.007 | 1.12 ± 0.15 | 0.818 ± 0.029 | 0.661 ± 0.057 |
| OS25HAL BONE | 1.02 ± 0.034 | 0.973 ± 0.028 | 1.01 ± 0.037 | 0.997 ± 0.061 | 1.03 ± 0.019 | 0.944 ± 0.055 | 0.85 ± 0.05 | 0.795 ± 0.055 | 1.02 ± 0.026 | 1.02 ± 0.031 | 1.02 ± 0.022 | 1.02 ± 0.016 | 1.019 ± 0.0078 | 1.01 ± 0.019 | 1.05 ± 0.02 | 1.02 ± 0.018 |
| SCC47 HEADNECK | 1.07 ± 0.05 | 1.06 ± 0.045 | 1.15 ± 0.064 | 1.08 ± 0.025 | 1.041 ± 0.0046 | 1.04 ± 0.074 | 0.95 ± 0.037 | 0.932 ± 0.019 | 1.06 ± 0.1 | 1.04 ± 0.036 | 1.1 ± 0.057 | 1.06 ± 0.075 | 1.04 ± 0.042 | 1.09 ± 0.04 | 1.05 ± 0.064 | 1.12 ± 0.093 |
